The values below come from paper PMC6895048, “4,5-Disubstituted 1,2,3-triazoles: Effective Inhibition of Indoleamine 2,3-Dioxygenase 1 Enzyme Regulates T cell Activity and Mitigates Tumor Growth” (Scientific Reports, 2019).

Molecules are shown by their SMILES.

The target of assay [1] is T1, purified human IDO1 enzyme (Homo sapiens, UniProt P14902).
T1 construct: made in house; host or cells: Escherichia coli M15 (pQE30 vector with pREP4 plasmid)
In words: IDO1 inhibition assay by the spectrometric method (pDMAB). The settings on record: for IC50: purified human IDO1, spectrophotometric, mean of three independent assays, read-out: hIDO1 IC50. Format: biochemical. The procedure:
Both IDO1 and TDO inhibition assays were performed according to the reported procedures[26]–[30],[50],[51]. […] In the assay system, the minimum and maximum amount of DMSO was 0.02% and 2%, respectively. […] The concentration of the inhibitors was varied from 100 µM to 32 nM by serial dilution technique. Then, the reaction was quenched with 100 µL of 30% (w/v) trichloroacetic acid and was incubated for further 15 minutes at 65 °C. After that, 2% (w/v) pDMAB was used to quantify the amount of kynurenine formation. The absorbance of the reaction mixture was recorded by UV-Vis spectrophotometer at 480 nm.

In assay [2] the target is T2, purified human TDO enzyme (Homo sapiens, UniProt P48775).
T2 construct: 6xHis (N); made in house; host or cells: Escherichia coli BL21 (DE3) (pET 28a vector)
T2 sequence (P48775 whole entry): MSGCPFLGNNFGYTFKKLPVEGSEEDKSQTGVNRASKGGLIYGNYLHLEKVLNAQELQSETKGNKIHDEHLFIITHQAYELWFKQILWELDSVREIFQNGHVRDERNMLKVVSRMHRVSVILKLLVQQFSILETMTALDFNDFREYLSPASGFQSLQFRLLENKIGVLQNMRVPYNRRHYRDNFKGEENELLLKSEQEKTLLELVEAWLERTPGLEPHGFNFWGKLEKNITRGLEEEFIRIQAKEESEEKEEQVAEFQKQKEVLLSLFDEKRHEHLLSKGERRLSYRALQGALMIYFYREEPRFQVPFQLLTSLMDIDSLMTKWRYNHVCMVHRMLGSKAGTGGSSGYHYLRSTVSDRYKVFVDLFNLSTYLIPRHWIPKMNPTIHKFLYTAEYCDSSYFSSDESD
Description: TDO inhibition assay by the spectrometric method. Format: biochemical. The settings on record: spectrophotometric. The protocol:
Both IDO1 and TDO inhibition assays were performed according to the reported procedures[26]–[30],[50],[51]. The solubility of the compounds in water was either moderate or poor. […] In the assay system, the minimum and maximum amount of DMSO was 0.02% and 2%, respectively. The standard reaction mixture (500 μL) containing KPB (100 mM, pH 6.5 for IDO1 enzyme and 50 mM, pH 8.0 for TDO enzyme), sodium ascorbate (20 mM), methylene blue (10 µM), catalase (240 nM, from bovine liver), L-Trp (150 µM), purified enzyme (40 nM for IDO1 and 25 nM for TDO), DMSO (0.05%, v/v), Triton-X 100 (0.01%, v/v) and inhibitors was incubated at 37 °C for 1 hour. The concentration of the inhibitors was varied from 100 µM to 32 nM by serial dilution technique. Then, the reaction was quenched with 100 µL of 30% (w/v) trichloroacetic acid and was incubated for further 15 minutes at 65 °C. After that, 2% (w/v) pDMAB was used to quantify the amount of kynurenine formation. The absorbance of the reaction mixture was recorded by UV-Vis spectrophotometer at 480 nm. The Km = 59.76 µM and Kcat = 6.18 sec^−1.

T1 sequence (P14902 whole entry): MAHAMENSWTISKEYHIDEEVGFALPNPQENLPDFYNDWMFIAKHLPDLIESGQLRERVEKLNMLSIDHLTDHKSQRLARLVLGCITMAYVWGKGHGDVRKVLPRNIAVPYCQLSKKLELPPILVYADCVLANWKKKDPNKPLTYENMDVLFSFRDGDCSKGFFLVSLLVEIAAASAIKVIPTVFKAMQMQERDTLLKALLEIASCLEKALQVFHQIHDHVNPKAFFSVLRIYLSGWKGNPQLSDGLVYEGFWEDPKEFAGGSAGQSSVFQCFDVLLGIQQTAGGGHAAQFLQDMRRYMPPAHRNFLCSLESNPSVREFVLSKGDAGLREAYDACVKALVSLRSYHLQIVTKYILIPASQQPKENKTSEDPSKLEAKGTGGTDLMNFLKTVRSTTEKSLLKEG

Take `NC(=O)c1n[nH]nc1-c1cccc(Cl)c1` [Compound 3d]: the IC50 in assay [1] came out at 2.69 ± 0.055 µM.
On to `CCOC(=O)c1n[nH]nc1-c1cccc(Cl)c1` [Compound 2d], for which the 50% inhibitory concentration (IC50) in assay [1] was 2.55 ± 0.033 µM.
Regarding `O=C(N/C(Cc1ccccc1)=N\O)c1n[nH]nc1-c1ccc(F)c(F)c1` [Compound 4g], in assay [1], the IC50 is 0.88 ± 0.018 µM.
For `Brc1ccc(-c2n[nH]nc2-c2ccc(Br)cc2)cc1` [Compound 1h], in assay [1], the half-maximal inhibitory concentration (IC50) was determined as 40.7 ± 2.7 µM.
For `NC(=O)c1n[nH]nc1-c1ccc(F)c(Cl)c1` [Compound 3k], in assay [1], the IC50 came to 1.83 ± 0.126 µM.
Take `Fc1ccc(-c2n[nH]nc2-c2ccc(F)c(F)c2)cc1F` [Compound 1i]: in assay [1], the IC50 came to 7.72 ± 0.761 µM.
In the case of `Fc1ccc(-c2n[nH]nc2-c2ccc(F)c(Br)c2)cc1Br` [1 l], in assay [1] (in comparison with lead compound 1a), the “fold stronger IDO1 inhibitory activity than 1a” value was 46 fold. Also, in assay [1], the IC50 is 1.94 ± 0.083 µM.
As to `O=C(N/C(Cc1ccc(F)c(F)c1)=N\O)c1n[nH]nc1-c1ccc(F)c(F)c1` [Compound 4h], the IC50 in assay [1] is 3.81 ± 0.24 µM.
Same read-out and setting: next, `NC(=O)c1n[nH]nc1-c1ccc(F)cc1` [Compound 3f]: 2.94 ± 0.034 µM.
`O=C(NC1C2CC3CC(C2)CC1C3)c1n[nH]nc1-c1ccc(Cl)c(Cl)c1` (stereo not drawn) [Compound 4e]: the 50% inhibitory concentration (IC50) in assay [1] was found to be 18.7 ± 0.398 µM.
Same read-out and setting: next, `NC(=O)c1n[nH]nc1-c1ccc(F)c(Br)c1` [3 l]: 1.993 ± 0.005 µM; `Clc1ccc(-c2n[nH]nc2-c2ccc(Cl)cc2)cc1` [Compound 1g]: 3.21 ± 0.1 µM.
`CCOC(=O)c1n[nH]nc1-c1ccc(Cl)cc1` [Compound 2g]: the “% of Enzyme inhibition (TDO)” value in assay [2] (32 nM) was determined as 16%; in assay [2] (160 nM), 18%; in assay [2] (800 nM), 23%; in assay [2] (4 µM), 28%; in assay [2] (20 µM) it was 36%; in assay [2] (100 µM), 46%. Further, in assay [1], the IC50 stood at 0.392 ± 0.084 µM.
`CCOC(=O)c1n[nH]nc1-c1cccc(Br)c1` [Compound 2e]: the IC50 in assay [1] turned out to be 2.981 ± 0.012 µM.
Same read-out and setting: the same measure for `NC(=O)c1n[nH]nc1-c1ccc(Br)cc1` [Compound 3h]: 5.156 ± 0.011 µM.
On the same count and under the same terms, the same measure for `NC(=O)c1n[nH]nc1-c1cccc(F)c1` [Compound 3c]: 6.61 ± 0.355 µM.
On to `Fc1ccc(-c2n[nH]nc2-c2ccc(F)c(Cl)c2)cc1Cl` [Compound 1k], for which the IC50 in assay [1] amounted to 6.91 ± 0.099 µM.
As to `NC(=O)c1n[nH]nc1-c1cccc(Br)c1` [Compound 3e], in assay [1], the IC50 turned out to be 26.7 ± 2.2 µM.
Regarding `c1ccc(-c2nn[nH]c2-c2ccccc2)cc1` [Compound 1a, 4,5-diphenyl 2H-1,2,3-triazole], the inhibition at 0.032 µM in assay [2] (32 nM) was determined as 8%. This molecule registered an inhibition at 0.16 µM in assay [2] (160 nM) of 10%. In assay [2] (800 nM), the inhibition at 0.8 µM is 19%. Moreover, the inhibition at 4 µM in assay [2] (4 µM) is 28%. For the same molecule, the inhibition at 20 µM in assay [2] (20 µM) turned out to be 40%. In assay [2] (100 µM), this molecule yielded an inhibition at 100 µM of 59%. The IC50 in assay [1] came out at 90 ± 2.94 µM.
Regarding `Cc1ccc(-c2n[nH]nc2C(N)=O)cc1` [Compound 3b], the IC50 in assay [1] was determined as 7.08 ± 0.691 µM.
With `Cc1ccc(-c2n[nH]nc2-c2ccc(C)cc2)cc1` [Compound 1b], the IC50 in assay [1] was determined as 54.9 ± 0.757 µM.
For the molecule `CCOC(=O)c1n[nH]nc1-c1ccc(F)c(Cl)c1` [Compound 2k], the 50% inhibitory concentration (IC50) in assay [1] turned out to be 1.69 ± 0.102 µM.
With `CCOC(=O)c1n[nH]nc1-c1ccc(F)c(Br)c1` [2 l], the IC50 in assay [1] was 3.04 ± 0.091 µM.
Turning to `CC(C)(C)OC(=O)NCCNC(=O)c1n[nH]nc1-c1ccc(F)c(F)c1` [Compound 4f], in assay [1], the concentration for half-maximal inhibition (IC50) is 2.74 ± 0.195 µM.
Consider `Fc1ccc(-c2n[nH]nc2-c2ccc(F)cc2)cc1` [Compound 1f], for which the IC50 in assay [1] is 25.2 ± 1.7 µM.
For `CCOC(=O)c1n[nH]nc1-c1ccc(C)cc1` [Compound 2b], the IC50 in assay [1] is 1.7 ± 0.061 µM.
`Clc1cccc(-c2n[nH]nc2-c2cccc(Cl)c2)c1` [Compound 1d]: the IC50 in assay [1] was 2.51 ± 0.06 µM.
Turning to `CC(=O)Nc1ccc(/C(=N/O)NC(=O)c2n[nH]nc2-c2ccc(F)c(F)c2)cc1` [Compound 4j], the IC50 in assay [1] stood at 2.36 ± 0.308 µM.
`NC(=O)c1n[nH]nc1-c1ccc(Cl)cc1` [Compound 3g]: the “% of Enzyme inhibition (TDO)” value stood at 5% in assay [2] (32 nM); 8% in assay [2] (160 nM); 15% in assay [2] (800 nM); 27% in assay [2] (4 µM); 35% in assay [2] (20 µM); 39% in assay [2] (100 µM). Also, the concentration for half-maximal inhibition (IC50) in assay [1] was found to be 0.624 ± 0.023 µM.
Take `CCOC(=O)c1n[nH]nc1-c1cccc(F)c1` [Compound 2c]: the 50% inhibitory concentration (IC50) in assay [1] was 31.4 ± 4.21 µM.
As to `Brc1cccc(-c2n[nH]nc2-c2cccc(Br)c2)c1` [Compound 1e], the IC50 in assay [1] came out at 21.9 ± 1.27 µM.
As to `CCOC(=O)c1n[nH]nc1-c1ccc(F)cc1` [Compound 2f], the IC50 in assay [1] amounted to 8.09 ± 0.21 µM.
With `CCOC(=O)c1n[nH]nc1-c1ccc(Br)cc1` [Compound 2h], the 50% inhibitory concentration (IC50) in assay [1] came out at 18.4 ± 1.68 µM.
As for `Fc1cccc(-c2n[nH]nc2-c2cccc(F)c2)c1` [Compound 1c], in assay [1], the IC50 was determined as 4.99 ± 0.057 µM.
Regarding `Clc1ccc(-c2n[nH]nc2-c2ccc(Cl)c(Cl)c2)cc1Cl` [Compound 1j], in assay [1], the IC50 stood at 12.9 ± 0.191 µM.

Usually IC50 stands for the point on the concentration scale where inhibition reaches its midpoint. Usually inhibition stands for the share of the control response that was lost under treatment.
